The test system of assay [1] is RPE-Neo or RPE-MYC or RPE-MYC expressing an EGFP-Histone 2B fusion protein. The assay can be described thus: Phenotypic screening assay (arrest in mitosis or change in DNA content, IN-Cell Analyzer). The format is cell-based. To be noted: compounds at 20 nM to 20 μM, analysed 24, 48 or 72 hours after initiation of treatment. The essentials: (§1)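 RPE-Neo, RPE-MYC or RPE-MYC EGFP-Histone 2B cells exposed to compound at 20 nM to 20 μM, 18-24 h after plating. Mitotic arrest or DNA-content change imaged at 24, 48 or 72 h; proliferation by MTT. Values binned A (1 nM–1.0 μM), B (>1.00–10.0 μM), C (>10.0–30.0 μM), D (>30.0–<1000 μM).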

The subject of assay [2] is RPE-Neo or RPE-MYC cells. The assay can be described thus: MTT assay of cellular proliferation. To be noted: compounds at 20 nM to 20 μM; read-out: Min. Effective conc. for Proliferative arrest (>50%). The format is cell-based. In outline: as §1
In general terms: Tetrazolium dyes change colour on reduction, which living cells bring about.

The mark [3] stands for this setting: read-out: Min. Effective conc. for Along with Cell Death.
[4] abbreviates: read-out: Min. Effective conc. for Mitotic Arrest (>5%).
The mark [5] stands for this setting: read-out: Min. Effective conc. for Polyploidy (≥5%).

The structures appear in SMILES notation. Where two headings read alike, the source gives them in different places.

Turning to `Cc1cnc(C2=C(Br)c3ccccc3N(Cc3ccc(C)c(F)c3)C(=O)C2)o1` [Compound 23-1, 5-bromo-1-(3-fluoro-4-methylbenzyl)-4-(5-methyloxazol-2-yl)-1,3-dihydro-2H-benzo[b]azepin-2-one], the minimal effective concentration in assay [1] (setting [3]), in assay [1] (setting [4]), in assay [1] (setting [5]) and in assay [2] was 0.001 to 1 µM in each case.

For `Cc1ccc(CN2C(=S)CC(c3nnc(C4CC4)o3)=C(Br)c3ccccc32)cc1F` [Compound 24-1, 5-bromo-4-(5-cyclopropyl-1,3,4-oxadiazol-2-yl)-1-(3-fluoro-4-methylbenzyl)-1,3-dihydro-2H-benzo[b]azepine-2-thione], the minimal effective concentration in assay [1] (setting [3]), in assay [1] (setting [4]), in assay [1] (setting [5]) and in assay [2] was 0.001 to 1 µM in each case.

For the compound `CCOCC1=C(Cl)c2ccccc2N(Cc2ccc(C)c(F)c2)C(=O)C1` [Compound 24-2, 5-chloro-4-(ethoxymethyl)-1-(3-fluoro-4-methylbenzyl)-1,3-dihydro-2H-benzo[b]azepin-2-one], the minimal effective concentration in assay [1] (setting [3]), in assay [1] (setting [4]), in assay [1] (setting [5]) and in assay [2] was 0.001 to 1 µM throughout.

As for `COC1=C(c2cnco2)CC(=O)N(Cc2ccc(C)c(F)c2)c2ccccc21` [Compound 26-1, 1-(3-fluoro-4-methylbenzyl)-5-methoxy-4-(oxazol-5-yl)-1,3-dihydro-2H-benzo[b]azepin-2-one], the minimal effective concentration in assay [1] (setting [3]), in assay [1] (setting [4]), in assay [1] (setting [5]) and in assay [2] was 1 to 10 µM each time.

For `COC1=C(CO)CC(=O)N(Cc2ccc(C)c(F)c2)c2ccccc21` [Compound 27-1, 1-(3-fluoro-4-methylbenzyl)-4-(hydroxymethyl)-5-methoxy-1,3-dihydro-2H-benzo[b]azepin-2-one], the minimal effective concentration in assay [1] (setting [3]), in assay [1] (setting [4]), in assay [1] (setting [5]) and in assay [2] was 30 to 1000 µM throughout.

Consider `COCC1=C(OC)c2ccccc2N(Cc2ccc(C)c(F)c2)C(=O)C1` [Compound 28-1, 1-(3-fluoro-4-methylbenzyl)-5-methoxy-4-(methoxymethyl)-1,3-dihydro-2H-benzo[b]azepin-2-one], for which the minimal effective concentration in assay [1] (setting [3]), in assay [1] (setting [4]), in assay [1] (setting [5]) and in assay [2] was 1 to 10 µM throughout.

Regarding `COc1ccc(C(=O)N2CCC(c3nnc(C4CC4)o3)=C(Br)c3ccccc32)cc1F` [Compound 34-2, (5-bromo-4-(5-cyclopropyl-1,3,4-oxadiazol-2-yl)-2,3-dihydro-1H-benzo[b]azepin-1-yl)(3-fluoro-4-methoxyphenyl)methanone], the minimal effective concentration in assay [1] (setting [3]), in assay [1] (setting [4]), in assay [1] (setting [5]) and in assay [2] was 0.001 to 1 µM throughout.

Consider `COc1ccc(S(=O)(=O)N2CCC(c3nnc(C4CC4)o3)=C(Br)c3ccccc32)cc1F` [Compound 34-3, 2-(5-bromo-1-((3-fluoro-4-methoxyphenyl)sulfonyl)-2,3-dihydro-1H-benzo[b]azepin-4-yl)-5-cyclopropyl-1,3,4-oxadiazole], for which the minimal effective concentration in assay [1] (setting [3]), in assay [1] (setting [4]), in assay [1] (setting [5]) and in assay [2] was 1 to 10 µM each time.

As to `Cc1ccc(S(=O)(=O)N2CCC(c3nnc(C4CC4)o3)=C(Br)c3ccccc32)cc1` [Compound 34-4, 2-(5-bromo-1-tosyl-2,3-dihydro-1H-benzo[b]azepin-4-yl)-5-cyclopropyl-1,3,4-oxadiazole], the minimal effective concentration in assay [1] (setting [3]), in assay [1] (setting [4]), in assay [1] (setting [5]) and in assay [2] was 1 to 10 µM throughout.

As to `Cc1ccc(C(C)N2C(=O)CC(c3nnc(C4CC4)o3)=C(Br)c3ccccc32)cc1F` (stereo not drawn) [Compound 40], the minimal effective concentration in assay [1] (setting [3]), in assay [1] (setting [4]), in assay [1] (setting [5]) and in assay [2] was 1 to 10 µM in each case.

Take `COCC1=C(Br)c2ccccc2N(Cc2ccc(C)c(F)c2)C(=O)C1` [Compound 42, 5-bromo-1-(3-fluoro-4-methylbenzyl)-4-(methoxymethyl)-1,3-dihydro-2H-benzo[b]azepin-2-one]: the minimal effective concentration in assay [1] (setting [3]), in assay [1] (setting [4]), in assay [1] (setting [5]) and in assay [2] was 0.001 to 1 µM in each case.

Regarding `Cc1ccc(CN2C(=O)CC(COC3CCOC3)=C(Br)c3ccccc32)cc1F` (stereo not drawn) [Compound 44-1, 5-bromo-1-(3-fluoro-4-methylbenzyl)-4-(((tetrahydrofuran-3-yl)oxy)methyl)-1,3-dihydro-2H-benzo[b]azepin-2-one], the minimal effective concentration in assay [1] (setting [3]), in assay [1] (setting [4]), in assay [1] (setting [5]) and in assay [2] was 0.001 to 1 µM each time.

Regarding `Cc1ccc(CN2C(=O)CC(COC3CCOCC3)=C(Br)c3ccccc32)cc1F` [Compound 44-2, 5-bromo-1-(3-fluoro-4-methylbenzyl)-4-(((tetrahydro-2H-pyran-4-yl)oxy)methyl)-1,3-dihydro-2H-benzo[b]azepin-2-one], the minimal effective concentration in assay [1] (setting [3]), in assay [1] (setting [4]), in assay [1] (setting [5]) and in assay [2] was 1 to 10 µM each time.

Turning to `Cc1ccc(CN2C(=O)CC(COCC3CCOC3)=C(Br)c3ccccc32)cc1F` (stereo not drawn) [Compound 44-3], the minimal effective concentration in assay [1] (setting [3]) lay in the range of 0.001 to 1 µM; in assay [1] (setting [4]), 1 to 10 µM; in assay [1] (setting [5]), 0.001 to 1 µM; in assay [2] it was 0.001 to 1 µM.

As for `Cc1ccc(CN2C(=O)CC(COCC3CCCO3)=C(Br)c3ccccc32)cc1F` (stereo not drawn) [Compound 44-4, 5-bromo-1-(3-fluoro-4-methylbenzyl)-4-(((tetrahydrofuran-2-yl)methoxy)methyl)-1,3-dihydro-2H-benzo[b]azepin-2-one], the minimal effective concentration in assay [1] (setting [3]), in assay [1] (setting [4]), in assay [1] (setting [5]) and in assay [2] was 1 to 10 µM throughout.

Take `Cc1ccc(CN2C(=O)CC(CO[C@@H]3CCOC3)=C(Br)c3ccccc32)cc1F` [Compound 44-5, (R)-5-bromo-1-(3-fluoro-4-methylbenzyl)-4-(((tetrahydrofuran-3-yl)oxy)methyl)-1,3-dihydro-2H-benzo[b]azepin-2-one]: the minimal effective concentration in assay [1] (setting [3]), in assay [1] (setting [4]), in assay [1] (setting [5]) and in assay [2] was 0.001 to 1 µM each time.

On to `Cc1ccc(CN2C(=O)CC(CO[C@H]3CCOC3)=C(Br)c3ccccc32)cc1F` [Compound 44-6, (S)-5-bromo-1-(3-fluoro-4-methylbenzyl)-4-(((tetrahydrofuran-3-yl)oxy)methyl)-1,3-dihydro-2H-benzo[b]azepin-2-one], for which the minimal effective concentration in assay [1] (setting [3]), in assay [1] (setting [4]), in assay [1] (setting [5]) and in assay [2] was 0.001 to 1 µM each time.

Take `Cc1ccc(CN2C(=O)CC(CN3CCCC3)=C(Br)c3ccccc32)cc1F` [Compound 45, 5-bromo-1-(3-fluoro-4-methylbenzyl)-4-(pyrrolidin-1-ylmethyl)-1,3-dihydro-2H-benzo[b]azepin-2-one]: the minimal effective concentration in assay [1] (setting [3]), in assay [1] (setting [4]), in assay [1] (setting [5]) and in assay [2] was 1 to 10 µM throughout.

For the origin of these results see patent US20250011289A1, “1H-BENZO[B]AZEPIN-2(3H)-ONE COMPOUNDS, COMPOSITIONS AND METHODS OF TREATING CANCER” (Chengdu Anticancer Bioscience, Ltd., priority 2021, published 2025).
